In patent US10301295B2, “Herbicidal compounds” (Syngenta Participations AG, priority 2014, dated 2019):
Like-named read-outs stand apart in the source and are kept apart here.

Assays:
Type in all cases: in vivo
[1] = test system: Alopecurus myosuroides (ALOMY); test: Glasshouse assay for herbicidal activity, pre-/post-emergence (percentage phytotoxicity); conditions: Alopecurus myosuroides, Rate 250 g/ha, 100%=total damage, 0%=no damage
Method in brief: (§1)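 Visual score (0–100% damage) at 15DAA post-em / 20DAA pre-em. Pots, std soil; treated 1 d (pre) or ~12 d (post) after sowing. 24/18 °C warm spp., 20/16 °C cool spp., 16 h light, 65% RH.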

Avena fatua (AVEFA) = test: as above; conditions: Avena fatua, Rate 250 g/ha, 100%=total damage, 0%=no damage
Method in brief: as §1

[2] = test system: Echinochloa crus-galli (ECHCG); test: as above; conditions: Echinochloa crus-galli, Rate 250 g/ha, 100%=total damage, 0%=no damage
Method in brief: as §1

Lolium perenne (LOLPE) = test: as above; conditions: Lolium perenne, Rate 250 g/ha, 100%=total damage, 0%=no damage
Method in brief: as §1

wheat = test: Post-emergence herbicidal activity against cereal crops (wheat) +/- safener, crop selectivity; conditions: 100%=total damage to plant, 0%=no damage; for Post-emergence herbicidal activity against wheat (percentage phytotoxicity), +CQC: 250 g/ha, plus safener cloquintocet-mexyl (CQC) applied at 50 g/ha; for percent phytotoxicity (crop damage) to wheat at 250 g/ha: Triticum aestivum, 360 h, without safener, read-out: Post-emergence herbicidal activity against wheat (percentage phytotoxicity), Wheat - CQC
Experimental: Seeds of a variety of monocotyledonous and dicotyledonous test plants are sown in standard soil in pots. The plants are cultivated for one day (for pre-emergence) or for about 12 days (for post-emergence) under controlled conditions in a glasshouse (warm climate species at 24/18° C., cool climate species at 20/16° C., both at day/night; 16 hours light; 65% humidity). The test plants are then grown on, in a glasshouse (greenhouse) under controlled conditions (warm climate species at 24/18° C., cool climate species at 20/16° C., both at day/night; 16 hours light; 65% humidity) and are watered twice daily. 15 days after application of the test herbicide (15DAA) (for post-emergence), and 20 days after application of the test herbicide (20DAA) (for pre-emergence), the test plants are evaluated visually, and an assessed percentage phytotoxicity score is given for each herbicidal application on each plant species (with 100%=total damage to plant; 0%=no damage to plant).

[3] = 360 h, post-emergence, visual assessment 15 DAA, read-out: Post-emergence herbicidal activity (percentage phytotoxicity), ALOMY POST
[4] = 480 h, pre-emergence, visual assessment 20 DAA, read-out: Pre-emergence herbicidal activity (percentage phytotoxicity), ALOMY PRE
[5] = post-emergence, 360 h, post-emergence, visual assessment 15 DAA, read-out: Post-emergence herbicidal activity (percentage phytotoxicity), AVEFA POST
[6] = pre-emergence, 480 h, pre-emergence, visual assessment 20 DAA, read-out: Pre-emergence herbicidal activity (percentage phytotoxicity), AVEFA PRE
[7] = post-emergence, 360 h, post-emergence, visual assessment 15 DAA, read-out: Post-emergence herbicidal activity (percentage phytotoxicity), ECHCG POST
[8] = pre-emergence, 480 h, pre-emergence, visual assessment 20 DAA, read-out: Pre-emergence herbicidal activity (percentage phytotoxicity), ECHCG PRE
[9] = post-emergence, 360 h, post-emergence, visual assessment 15 DAA, read-out: Post-emergence herbicidal activity (percentage phytotoxicity), LOLPE POST
[10] = pre-emergence, 480 h, pre-emergence, visual assessment 20 DAA, read-out: Pre-emergence herbicidal activity (percentage phytotoxicity), LOLPE PRE

SMILES | pest or weed control at 250 g/ha [1, 3] [%] | pest or weed control at 250 g/ha [1, 4] [%] | pest or weed control at 250 g/ha (Avena fatua (AVEFA); [5]) [%] | pest or weed control at 250 g/ha (Avena fatua (AVEFA); [6]) [%] | pest or weed control at 250 g/ha [2, 7] [%] | pest or weed control at 250 g/ha [2, 8] [%] | pest or weed control at 250 g/ha (Lolium perenne (LOLPE); [9]) [%] | pest or weed control at 250 g/ha (Lolium perenne (LOLPE); [10]) [%] | Post-emergence herbicidal activity against wheat (percentage phytotoxicity), +CQC (wheat) [%] | percent phytotoxicity (crop damage) to wheat at 250 g/ha (wheat) [%]
Cc1cc(-n2cc(Cl)cn2)cc(C)c1C1C(=O)CC(CCNC(=O)N(C)c2ccccn2)C1=O (stereo not drawn) [Compound A20] | 80 | 20 | 100 | 80 | 100 | 100 | 90 | 80 | 0 | 80
Cc1cc(C)c(C2C(=O)CC(CCNC(=O)C3=NOC(C)(C)C3)C2=O)c(C)c1 (stereo not drawn) [Compound A40, N-[2-[2,4-dioxo-3-(2,4,6-trimethylphenyl)cyclopentyl]ethyl]-5,5-dimethyl-4H-isoxazole-3-carboxamide] | 100 | 90 | 100 | 100 | 100 | 100 | 90 | 100 | 80 | 90
Cc1cc(C)c(C2C(=O)CC(CCNC(=O)NC(=O)c3ccc(Cl)c(Cl)c3)C2=O)c(C)c1 (stereo not drawn) [Compound A68] | 50 | 0 | 0 | 10 | 70 | 10 | 80 | 30 | 0 | 90
Cc1cc(C)c(C2C(=O)CC(CCNC(=O)NC(=O)c3ccc(Cl)c(F)c3)C2=O)c(C)c1 (stereo not drawn) [Compound A58] | 40 | 0 | 10 | 0 | 80 | 0 | 90 | 0 | 20 | 80
Cc1cc(C)c(C2C(=O)CC(CCNS(=O)(=O)c3cccs3)C2=O)c(C)c1 (stereo not drawn) [Compound A82] | 40 | 70 | 30 | 0 | 20 | 30 | 50 | 70 | 0 | 0
COc1ccc(S(=O)(=O)NCCC2CC(=O)C(c3c(C)cc(C)cc3C)C2=O)cc1 (stereo not drawn) [Compound A79] | 30 | 30 | 60 | 10 | 40 | 50 | 60 | 70 | 0 | 30
Cc1cc(C)c(C2C(=O)CC(CCNC(=O)N(C)c3ccccc3)C2=O)c(C)c1 (stereo not drawn) [Compound A8] | 80 | 70 | 90 | 90 | 80 | 90 | 90 | 90 | 10 | 70
Cc1cc(-n2cc(Cl)cn2)cc(C)c1C1C(=O)CC(CCNC(=O)Nc2ccncn2)C1=O.Cl (stereo not drawn) [Compound A33] | 40 | 60 | 40 | 40 | 80 | 70 | 30 | 0 | 10 | 40
CC#Cc1cc(C)c(C2C(=O)CC(CCNC(=O)N(C)c3ccccn3)C2=O)c(C)c1.Cl (stereo not drawn) [Compound A22] | 80 | 70 | 100 | 100 | 100 | 100 | 90 | 100 | 30 | 80
Cc1cc(C)c(C2C(=O)CC(CCNS(=O)(=O)c3ccc(F)c(Cl)c3)C2=O)c(C)c1 (stereo not drawn) [Compound A75] | 60 | 70 | 80 | 60 | 30 | 70 | 70 | 80 | 0 | 0
Cc1cc(C)c(C2C(=O)CC(CCNC(=O)NC(=O)c3ccc(C(F)(F)F)cc3)C2=O)c(C)c1 (stereo not drawn) [Compound A72] | 30 | 20 | 90 | 20 | 80 | 0 | 80 | 10 | 70 | 80
Cc1cc(C)c(C2C(=O)CC(CCNC(=O)NCc3ccccc3)C2=O)c(C)c1 (stereo not drawn) [Compound A7] | 10 | 0 | 90 | 0 | 90 | 0 | 70 | 0 | 0 | 20
